# Patent US11685732B2, “MYST family histone acetyltransferase inhibitors” (Epizyme, Inc., priority 2017, dated 2023)
# Biological target: KAT-6A (Homo sapiens (Human), UniProt Q92794)
# Assay: KAT-6A biochemical inhibition assay (SAMDI mass spectrometry)
# Conditions: not given
# Experimental: (§1) KAT-6A. Enzyme assay buffer was 50 mM Tris pH 8.0, 0.002% Tween20, 0.005% bovine skin gelatin, and 1 mM dithiothreitol (DTT). For determination of IC50 values, compounds were serially diluted with 2% (v/v) DMSO in the final reaction, pre-incubating each dilution of each compound with 40 μL of assay buffer containing KAT-6A enzyme (12.5 nM final concentration). 10 μL of assay buffer containing 1 μM peptide substrate and 1 μM acetyl coenzyme A (final concentrations) was added. Reactions (50 μL total) were then carried out at 25° C. for 90 minutes. Reactions were terminated by the addition of 0.5% formic acid (final concentration), and a sample of each reaction was analyzed by SAMDI Tech, Inc. (Chicago, Ill.) using self-assembled monolayer desorption/ionization time-of-flight mass spectrometry (Mrksich, M. (2008) Mass spectrometry of self-assembled monolayers: a new tool for molecular surface science. ACS Nano 2, 7-18).
# Sequence of KAT-6A (Q92794 other isoform, or with tags, fused parts or gaps): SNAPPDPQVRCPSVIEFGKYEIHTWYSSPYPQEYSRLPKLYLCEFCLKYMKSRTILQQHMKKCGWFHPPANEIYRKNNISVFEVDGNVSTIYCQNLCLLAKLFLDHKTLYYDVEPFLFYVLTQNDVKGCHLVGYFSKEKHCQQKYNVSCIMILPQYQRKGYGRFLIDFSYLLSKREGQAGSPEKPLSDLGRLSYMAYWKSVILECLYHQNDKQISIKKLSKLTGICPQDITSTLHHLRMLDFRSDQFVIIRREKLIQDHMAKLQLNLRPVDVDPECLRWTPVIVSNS
row,IC50 [µM],SMILES
1,< 10,COc1cc(F)c(S(=O)(=O)NNC(=O)c2cc(-c3cn(C)cn3)cc(Cl)c2F)c(F)c1 [Compound I-421]
2,< 10,Cn1cnc(-c2cc(Cl)c(F)c(C(=O)NNS(=O)(=O)c3cc(O)ccc3F)c2)c1 [Compound I-453]
3,10 to 50,CCNC(=O)N[C@H]1CC[C@H](C(C)S(=O)(=O)NNC(=O)c2cc(-c3cn(C)cn3)cc(Cl)c2F)CC1 (some centres unmarked) [Compound I-455]
4,< 10,Cn1cnc(-c2cc(Cl)c(F)c(C(=O)NNS(=O)(=O)c3cccc(O)c3)c2)c1 [Compound I-429]
5,10 to 50,COc1ccc(S(=O)(=O)NNC(=O)c2cc(-c3cn(C)cn3)cc(Cl)c2F)c(F)c1OCc1ccccc1 [Compound I-462]
6,> 100,CC([C@H]1CC[C@@H](N)CC1)S(=O)(=O)NNC(=O)c1cc(-c2cn(C)cn2)cc(Cl)c1F (some centres unmarked) [Compound I-448]
7,< 10,Cn1cnc(-c2cc(Cl)c(F)c(C(=O)NNS(=O)(=O)c3ccc(F)cc3F)c2)c1 [Compound I-423]
8,50 to 100,CCN(C)C(=O)N(C)C1CC(CS(=O)(=O)NNC(=O)c2cc(-c3cn(C)cn3)cc(Cl)c2F)C1 (centres unmarked) [Compound I-425]
9,< 10,COc1ccc(S(=O)(=O)NNC(=O)c2cc(-c3cn(C)cn3)cc(Cl)c2F)cc1O [Compound I-459]
10,10 to 50,COc1ccc(S(=O)(=O)NNC(=O)c2cc(-c3cn(C)cn3)cc(Cl)c2F)cc1OCc1ccccc1 [Compound I-457]
11,> 100,Cn1cnc(-c2cc(C(=O)NNS(=O)(=O)CC3CCCCC3)c(F)c(Cl)c2C#N)c1 [Compound I-443]
12,< 10,COc1cnc(Cl)c(S(=O)(=O)NNC(=O)c2cc(-c3cn(C)cn3)cc(Cl)c2F)c1 [Compound I-464]
13,< 10,COCCOC1CCCC(CS(=O)(=O)NNC(=O)c2cc(-c3cn(C)cn3)cc(Cl)c2F)C1 (centres unmarked) [Compound I-461]
14,10 to 50,COc1ccc(S(=O)(=O)NNC(=O)c2cc(-c3cn(C)cn3)cc(Cl)c2F)c(Cl)c1 [Compound I-426]
15,< 10,Cn1cnc(-c2cc(Cl)c(F)c(C(=O)NNS(=O)(=O)c3cc(OCc4ccccc4)ccc3F)c2)c1 [Compound I-450]
16,10 to 50,CCN1CC(CS(=O)(=O)NNC(=O)c2cc(-c3cn(C)cn3)cc(Cl)c2F)CCC1=O (centres unmarked) [Compound I-424]
17,< 10,Cn1cnc(-c2cc(Cl)c(F)c(C(=O)NNS(=O)(=O)c3cccc(OCc4ccccc4)c3F)c2)c1 [Compound I-442]
18,< 10,COc1cnc(S(=O)(=O)NNC(=O)c2cc(-c3cn(C)cn3)cc(Cl)c2F)c(F)c1 [Compound I-468]
19,< 10,CCNC(=O)N(C)C1CC(CS(=O)(=O)NNC(=O)c2cc(-c3cn(C)cn3)cc(Cl)c2F)C1 (centres unmarked) [Compound I-428]
20,< 10,COc1ccc(S(=O)(=O)NNC(=O)c2cc(-c3cn(C)cn3)cc(Cl)c2F)c(F)c1O [Compound I-465]
21,10 to 50,Cn1cnc(-c2cc(Cl)c(F)c(C(=O)NNS(=O)(=O)CC3CCCN(CC(F)(F)F)C3)c2)c1 (centres unmarked) [Compound I-437]
22,10 to 50,Cn1cnc(-c2cc(Cl)c(F)c(C(=O)NNS(=O)(=O)CC3CC3)c2)c1 [Compound I-460]
23,10 to 50,Cn1cnc(-c2cc(Cl)c(F)c(C(=O)NNS(=O)(=O)c3cccnc3O)c2)c1 [Compound I-430]
24,10 to 50,Cn1cnc(-c2cc(Cl)c(F)c(C(=O)NNS(=O)(=O)Cc3ccnn3C)c2)c1 [Compound I-482]
25,< 10,COCCOc1ccc(S(=O)(=O)NNC(=O)c2cc(-c3cn(C)cn3)cc(Cl)c2F)c(F)c1 [Compound I-440]

row,IC50 [µM],SMILES
1,< 10,CC([C@H]1CC[C@@H](NC(=O)OC(C)(C)C)CC1)S(=O)(=O)NNC(=O)c1cc(-c2cn(C)cn2)cc(Cl)c1F (some centres unmarked) [Compound I-446]
2,< 10,CC([C@H]1CC[C@H](NC(=O)OC(C)(C)C)CC1)S(=O)(=O)NNC(=O)c1cc(-c2cn(C)cn2)cc(Cl)c1F (some centres unmarked) [Compound I-447]
3,< 10,Cn1cnc(-c2cc(Cl)c(F)c(C(=O)NNS(=O)(=O)C[C@H]3CC[C@H](NCC(F)(F)F)CC3)c2)c1 [Compound I-466]
4,10 to 50,Cn1cnc(-c2cc(Cl)c(F)c(C(=O)NNS(=O)(=O)C3CCN(CC(F)(F)F)CC3)c2)c1 [Compound I-445]
5,10 to 50,Cn1cnc(-c2cc(Cl)c(F)c(C(=O)NNS(=O)(=O)CC3CCN(CC(F)(F)F)CC3)c2)c1 [Compound I-431]
6,> 100,CNCCOc1ccc(S(=O)(=O)NNC(=O)c2cc(-c3cn(C)cn3)cc(Cl)c2F)cc1 [Compound I-422]
7,10 to 50,Cn1cnc(-c2cc(Cl)c(F)c(C(=O)NNS(=O)(=O)C3CCN(CC(F)(F)F)C3)c2)c1 (centres unmarked) [Compound I-452]
8,> 100,COCCc1cn(Cc2ccc(OC)cc2)cc1-c1cc(Cl)c(F)c(C(=O)NNS(=O)(=O)CC2CCOCC2)c1 [Compound I-436]
9,< 10,CN(C)CCOc1cccc(S(=O)(=O)NNC(=O)c2cc(-c3cn(C)cn3)cc(Cl)c2F)c1 [Compound I-432]
10,10 to 50,Cn1cnc(-c2cc(Cl)c(F)c(C(=O)NNS(=O)(=O)C3CCC4CCC3C4)c2)c1 (centres unmarked) [Compound I-427]
11,< 10,COCCOC1CCC(CS(=O)(=O)NNC(=O)c2cc(-c3cn(C)cn3)cc(Cl)c2F)CC1 (centres unmarked) [Compound I-463]
12,< 10,COc1cc(F)c(S(=O)(=O)NNC(=O)c2cc(-c3cn(C)cn3)cc(Cl)c2F)cc1O [Compound I-458]
13,10 to 50,Cn1cnc(-c2cc(Cl)c(F)c(C(=O)NNS(=O)(=O)C3CCCN(CC(F)(F)F)C3)c2)c1 (centres unmarked) [Compound I-456]
14,10 to 50,CC(=O)NCc1c(-c2cn(C)cn2)cc(C(=O)NNS(=O)(=O)CC2CCCCC2)c(F)c1Cl [Compound I-470]
15,10 to 50,Cn1cnc(-c2cc(Cl)c(F)c(C(=O)NNS(=O)(=O)Cc3c(Cl)cnn3C)c2)c1 [Compound I-477]
16,> 100,CC([C@H]1CC[C@H](N)CC1)S(=O)(=O)NNC(=O)c1cc(-c2cn(C)cn2)cc(Cl)c1F (some centres unmarked) [Compound I-449]
17,< 10,Cn1cnc(-c2cc(Cl)c(F)c(C(=O)NNS(=O)(=O)c3ccc(Cl)cc3F)c2)c1 [Compound I-438]
18,< 10,CO[C@H]1CCCC[C@@H]1CS(=O)(=O)NNC(=O)c1cc(-c2cn(C)cn2)cc(Cl)c1F [Compound I-434]
19,< 10,CO[C@@H]1CCCC[C@@H]1CS(=O)(=O)NNC(=O)c1cc(-c2cn(C)cn2)cc(Cl)c1F [Compound I-435]
20,< 10,CCOc1ccc(S(=O)(=O)NNC(=O)c2cc(-c3cn(C)cn3)cc(Cl)c2F)c(F)c1 [Compound I-441]
21,< 10,Cn1cnc(-c2cc(Cl)c(F)c(C(=O)NNS(=O)(=O)c3cccc(O)c3F)c2)c1 [Compound I-444]
22,< 10,CCNC(=O)N[C@H]1CC[C@@H](C(C)S(=O)(=O)NNC(=O)c2cc(-c3cn(C)cn3)cc(Cl)c2F)CC1 (some centres unmarked) [Compound I-454]
23,10 to 50,COc1cc(F)c(S(=O)(=O)NNC(=O)c2cc(-c3cn(C)cn3)cc(Cl)c2F)cc1OCc1ccccc1 [Compound I-451]
24,< 10,CC(C)Oc1ccc(S(=O)(=O)NNC(=O)c2cc(-c3cn(C)cn3)cc(Cl)c2F)c(F)c1 [Compound I-439]

# Same assay, conditions: Table 5
row,IC50 [µM],SMILES
1,10 to 50,Cc1cccc(-c2cc(Cl)c(F)c(C(=O)NNS(=O)(=O)CC3CNCCO3)c2)c1 (centres unmarked) [Compound A-5]
2,≤ 10,Cc1cccc(-c2cc(Cl)c(F)c(C(=O)NNS(=O)(=O)CC3CN(C(=O)OC(C)(C)C)CCO3)c2)c1 (centres unmarked) [Compound A-4]
3,> 100,CCN1CCCC(CS(=O)(=O)NNC(=O)c2cc(-c3cccc(C)c3)cc(Cl)c2F)C1 (centres unmarked) [Compound A-9]
4,≤ 10,Cc1cccc(-c2cc(Cl)c(F)c(C(=O)NNS(=O)(=O)CC3CN(C)CCO3)c2)c1 (centres unmarked) [Compound A-11]
5,> 100,Cc1cccc(-c2cc(Cl)c(F)c(C(=O)NNS(=O)(=O)C[C@H]3CCCNC3)c2)c1 [Compound A-7]
6,> 100,Cc1cccc(-c2cc(C)c(F)c(C(=O)NNS(=O)(=O)CC3CCCNC3)c2)c1 (centres unmarked) [Compound A-6]
7,10 to 50,Cc1c(-c2ccccc2)ccc(F)c1C(=O)NNS(=O)(=O)c1ccc(Cl)cc1 [Compound A-1]
8,> 100,Cc1cccc(-c2cc(Cl)c(F)c(C(=O)NNS(=O)(=O)CCCN(C)Cc3ccccc3)c2)c1 [Compound A-18]
9,> 100,Cc1cccc(-c2cc(Cl)c(F)c(C(=O)NNS(=O)(=O)C[C@@H]3CCCNC3)c2)c1 [Compound A-10]
10,> 100,Cc1cccc(-c2cc(C)c(F)c(C(=O)NNS(=O)(=O)CC3CCN(C(=O)OC(C)(C)C)C3)c2)c1 (centres unmarked) [Compound A-2]
11,> 100,Cc1cccc(-c2cc(Cl)c(F)c(C(=O)NNS(=O)(=O)CC3CCCN(C)C3)c2)c1 (centres unmarked) [Compound A-8]
12,> 100,Cc1cccc(-c2cc(C)c(F)c(C(=O)NNS(=O)(=O)CC3CCNC3)c2)c1 (centres unmarked) [Compound A-3]

# Biological target: KAT-5 (Homo sapiens (Human), UniProt Q92993)
# Sequence (Q92993 other isoform, or with tags, fused parts or gaps): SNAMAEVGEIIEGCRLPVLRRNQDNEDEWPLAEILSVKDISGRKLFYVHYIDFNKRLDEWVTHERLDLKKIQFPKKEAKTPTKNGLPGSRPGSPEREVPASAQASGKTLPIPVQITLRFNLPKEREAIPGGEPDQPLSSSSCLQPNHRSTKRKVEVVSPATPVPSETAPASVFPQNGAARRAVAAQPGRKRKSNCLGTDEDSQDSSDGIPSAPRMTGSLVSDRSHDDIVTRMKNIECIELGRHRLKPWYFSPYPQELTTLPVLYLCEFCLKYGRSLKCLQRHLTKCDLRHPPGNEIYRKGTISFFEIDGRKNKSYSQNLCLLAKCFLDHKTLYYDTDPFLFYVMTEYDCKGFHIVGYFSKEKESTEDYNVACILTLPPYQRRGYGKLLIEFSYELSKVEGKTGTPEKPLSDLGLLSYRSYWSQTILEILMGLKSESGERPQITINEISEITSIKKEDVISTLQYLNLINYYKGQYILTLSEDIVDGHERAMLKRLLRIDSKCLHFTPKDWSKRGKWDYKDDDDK
# Assay: KAT-5 biochemical inhibition assay (SAMDI mass spectrometry)
# Conditions: not given
# Experimental: as §1, with “KAT-5. Enzyme assay” for “KAT-6A. Enzyme assay”, “buffer containing KAT-5 enzyme (9” for “buffer containing KAT-6A enzyme (12.5”, “KAT-5 enzyme (9 nM final” for “KAT-6A enzyme (12.5 nM final”, “substrate and 0.5 μM acetyl” for “substrate and 1 μM acetyl”
row,IC50 [µM],SMILES
1,10 to 50,COc1ccc(S(=O)(=O)NNC(=O)c2cc(-c3cn(C)cn3)cc(Cl)c2F)c(F)c1OCc1ccccc1 [Compound I-462]
2,< 10,COc1cnc(S(=O)(=O)NNC(=O)c2cc(-c3cn(C)cn3)cc(Cl)c2F)c(F)c1 [Compound I-468]
3,10 to 50,Cn1cnc(-c2cc(Cl)c(F)c(C(=O)NNS(=O)(=O)Cc3ccnn3C)c2)c1 [Compound I-482]
4,> 100,CC(=O)NCc1c(-c2cn(C)cn2)cc(C(=O)NNS(=O)(=O)CC2CCCCC2)c(F)c1Cl [Compound I-470]
5,< 10,Cn1cnc(-c2cc(Cl)c(F)c(C(=O)NNS(=O)(=O)Cc3c(Cl)cnn3C)c2)c1 [Compound I-477]

# Same assay, conditions: Table 5
row,IC50 [µM],SMILES
1,≤ 10,Cc1cccc(-c2cc(Cl)c(F)c(C(=O)NNS(=O)(=O)CC3CN(C)CCO3)c2)c1 (centres unmarked) [Compound A-11]
2,> 100,Cc1cccc(-c2cc(Cl)c(F)c(C(=O)NNS(=O)(=O)CCCN(C)Cc3ccccc3)c2)c1 [Compound A-18]
